Assay [1] in a line: Inhibition of CYP3A (unknown origin) using testosterone as substrate. The assay is classed as ADME, Homo sapiens.
Assay [2] can be described thus: Inhibition of CYP3A (unknown origin) using midazolam as substrate. Type of assay: ADME, Homo sapiens.

Bounds are passed on as bounds.

The text below walks through data of ChEMBL document CHEMBL3621109, “Probing Mechanisms of CYP3A Time-Dependent Inhibition Using a Truncated Model System” (ACS Med Chem Lett, 2015).

For orientation: IC50 means the concentration at which inhibition is half-maximal. Low values mean inhibition by little substance, high ones a need for much substance. Regarding `Cn1ncc(NC(=O)OCc2ccccc2)c1N1CC[C@H](N)CC(F)(F)C1`, the values for the IC50 in assay [1] and in assay [2] were 2.5 µM and 7.7 µM, respectively.

With `Cn1ncc(NC(=O)c2ccccc2)c1N1CC[C@H](N)CC(F)(F)C1`, the half-maximal inhibitory concentration (IC50) in assay [1] was 4.3 µM; in assay [2], 5 µM.

As for `Cn1ncc(NC(=O)c2ccccc2)c1N1CCCCC(F)(F)C1`, the values for the IC50 in assay [1] and in assay [2] were 1.7 µM and 0.84 µM, respectively.

Take `Cn1ncc(NC(=O)c2ccccc2)c1N1CCC(O)CC(F)(F)C1` (racemic): the IC50 in assay [2] was more than 10 µM.
